According to patent publication US7727949B2, “Cleaning agent for thermostatic chambers” (Wako Pure Chemical Industries, Ltd., priority 2005, dated 2010):

Key:
Format in all cases: cell-based
[1] = system: Cladosporium cladosporioides (NBRC6348); test: Study of antimicrobial activity (MIC, agar plate medium)
Experimental: (§1) In a sterilized petri dish having a diameter of 90 mm, an aqueous solution which was obtained by diluting each of agents with distilled water such that a concentration of the agent become each predetermined concentrations when the solution is prepared to a total volume of 20 mL, and then sterilized water was added into the petri dish such that a total volume of sterilized water and the agent aqueous solution become 2 mL. Further, 18 mL of nutrient agar medium, which was sterilized with high pressure steam and preserved at 50° C.±2° C., was added into the petri dish, and it was solidified to obtain an agar plate medium.
(§2) The individual test microorganism, which was preliminarily cultured in bouillon medium in advance until 1×10^8 microorganisms/mL, was diluted with sterilized physiological saline for 100 times (to 1×10^6 microorganisms/mL). Next, prepared solution of the test microorganism was smeared with a platinum loop on the surface of the agar plate medium prepared in (2), and the medium was cultured at 35° C.±2° C., for 24 hours.
(§3) After the cultivation, confirming the presence or not of growth of the microorganism on the surface of the medium was conducted, a minimum concentration of the agent, where growth of the microorganisms cannot be recognized, was determined as the minimum inhibitory concentration (MIC, μg/mL) of the agent.

[2] = system: Penicillium citrinum (NBRC6352); test: as above
Experimental: as §1, §2, §3

[3] = system: Pseudonas aeruginosa (NBRC12689); test: as above
Experimental: as §1, §2, §3

[4] = system: Bacillus subtilis (NBRC13719); test: as above
Experimental: as §1, §2, §3

[5] = system: Trichoderma viride (NBRC31831); test: as above
Experimental: as §1, §2, §3

[6] = system: Escherichia coli (NBRC3972); test: as above
Experimental: as §1, §2, §3

[7] = system: Staphylococcus aureus (NBRC12732); test: as above
Experimental: as §1, §2, §3

[8] = system: Aspergillus niger (NBRC6341); test: as above
Experimental: as §1, §2, §3

[9] = system: Chaetomium globosum (NBRC6347); test: as above
Experimental: as §1, §2, §3

[10] = system: Pseudonas aeruginosa (NBRC12689); test: Study of antimicrobial activity in the presence of proteins (MIC)
Experimental: (§4) GOT (glutamic-oxaloacetic transaminase) solution: GOT Substrate-Enzyme solution and GOT-2α•KG solution which were components of L type Wako GOT•J2 kit (produced by Wako Pure Chemical Industries, Ltd.) were prepared with distilled water so as to become a 0.2 w/w % aqueous solution.
(§5) GPT (glutamic-pyruvic transaminase) solution: GOT Substrate-Enzyme solution and GOT•2α-KG solution which were components of L type Wako GPT•J2 kit (produced by Wako Pure Chemical Industries, Ltd.) were prepared with distilled water so as to become a 0.2 w/w % aqueous solution.
(§6) Serum: Control Serum II Wako (produced by Wako Pure Chemical Industries, Ltd.) was prepared with distilled water so as to become a 0.2 w/w % aqueous solution with distilled water.
as §1, with “distilled water was added such that” for “distilled water such that”, “mL, and the agent aqueous solution and a reagent solution such that a final concentration of each of components (GOT, GPT, and serum) in the reagent become 100 μg/mL when the solution is prepared to a total volume of 20 mL. And then, sterilized water” for “mL, and then sterilized water”, “plate medium. Furthermore, as a reference, agar plate medium obtained by using pure water instead of the agent solution was also prepared.” for “plate medium.”
as §2, with “test microorganisms,” for “test microorganism,”, “Next, the” for “Next,”, “test microorganisms” for “test microorganism”, “C.±2° C.” for “C.±2° C.,”
as §3, with “not of the growth of” for “not of growth of”, “recognized, was determine as the” for “recognized, was determined as the”

[11] = system: Bacillus subtilis (NBRC13719); test: as above
Experimental: as §4, §5, §6
as §1, with “distilled water was added such that” for “distilled water such that”, “mL, and the agent aqueous solution and a reagent solution such that a final concentration of each of components (GOT, GPT, and serum) in the reagent become 100 μg/mL when the solution is prepared to a total volume of 20 mL. And then, sterilized water” for “mL, and then sterilized water”, “plate medium. Furthermore, as a reference, agar plate medium obtained by using pure water instead of the agent solution was also prepared.” for “plate medium.”
as §2, with “test microorganisms,” for “test microorganism,”, “Next, the” for “Next,”, “test microorganisms” for “test microorganism”, “C.±2° C.” for “C.±2° C.,”
as §3, with “not of the growth of” for “not of growth of”, “recognized, was determine as the” for “recognized, was determined as the”

[12] = system: Escherichia coli (NBRC3972); test: as above
Experimental: as §4, §5, §6
as §1, with “distilled water was added such that” for “distilled water such that”, “mL, and the agent aqueous solution and a reagent solution such that a final concentration of each of components (GOT, GPT, and serum) in the reagent become 100 μg/mL when the solution is prepared to a total volume of 20 mL. And then, sterilized water” for “mL, and then sterilized water”, “plate medium. Furthermore, as a reference, agar plate medium obtained by using pure water instead of the agent solution was also prepared.” for “plate medium.”
as §2, with “test microorganisms,” for “test microorganism,”, “Next, the” for “Next,”, “test microorganisms” for “test microorganism”, “C.±2° C.” for “C.±2° C.,”
as §3, with “not of the growth of” for “not of growth of”, “recognized, was determine as the” for “recognized, was determined as the”

[13] = system: Staphylococcus aureus (NBRC12732); test: as above
Experimental: as §4, §5, §6
as §1, with “distilled water was added such that” for “distilled water such that”, “mL, and the agent aqueous solution and a reagent solution such that a final concentration of each of components (GOT, GPT, and serum) in the reagent become 100 μg/mL when the solution is prepared to a total volume of 20 mL. And then, sterilized water” for “mL, and then sterilized water”, “plate medium. Furthermore, as a reference, agar plate medium obtained by using pure water instead of the agent solution was also prepared.” for “plate medium.”
as §2, with “test microorganisms,” for “test microorganism,”, “Next, the” for “Next,”, “test microorganisms” for “test microorganism”, “C.±2° C.” for “C.±2° C.,”
as §3, with “not of the growth of” for “not of growth of”, “recognized, was determine as the” for “recognized, was determined as the”

Compound	Minimum Inhibitory Concentration Cl.cl [1]	Minimum Inhibitory Concentration P.c [2]	Minimum Inhibitory Concentration P.a [3]	Minimum Inhibitory Concentration B.s [4]	Minimum Inhibitory Concentration T.v [5]	Minimum Inhibitory Concentration E.c [6]	Minimum Inhibitory Concentration S.a [7]	Minimum Inhibitory Concentration A.n [8]	Minimum Inhibitory Concentration C.g [9]	Minimum Inhibitory Concentration P.a ([10]; GOT 100 μg/mL)	Minimum Inhibitory Concentration P.a ([10]; GPT 100 μg/mL)	Minimum Inhibitory Concentration P.a ([10]; Pure Water)	Minimum Inhibitory Concentration P.a ([10]; Serum 100 μg/mL)	Minimum Inhibitory Concentration B.s ([11]; GOT 100 μg/mL)	Minimum Inhibitory Concentration B.s ([11]; GPT 100 μg/mL)	Minimum Inhibitory Concentration B.s ([11]; Pure Water)	Minimum Inhibitory Concentration B.s ([11]; Serum 100 μg/mL)	Minimum Inhibitory Concentration E.c ([12]; GOT 100 μg/mL)	Minimum Inhibitory Concentration E.c ([12]; GPT 100 μg/mL)	Minimum Inhibitory Concentration E.c ([12]; Pure Water)	further results
CCCCCCCCCCCCN(CCCN)CCCN [TAA, N-bis(3-aminopropyl)dodecylamine]	25 µg/mL	200 µg/mL	100 µg/mL	3.125 µg/mL	50 µg/mL	50 µg/mL	3.125 µg/mL	200 µg/mL	100 µg/mL	100 µg/mL	100 µg/mL	10 µg/mL	100 µg/mL	10 µg/mL	10 µg/mL	10 µg/mL	10 µg/mL	50 µg/mL	50 µg/mL	50 µg/mL	Minimum Inhibitory Concentration E.c ([12]; Serum 100 μg/mL): 50 µg/mL; Minimum Inhibitory Concentration S.a ([13]; GOT 100 μg/mL): 10 µg/mL; Minimum Inhibitory Concentration S.a ([13]; GPT 100 μg/mL): 10 µg/mL; Minimum Inhibitory Concentration S.a ([13]; Pure Water): 10 µg/mL; Minimum Inhibitory Concentration S.a ([13]; Serum 100 μg/mL): 10 µg/mL
benzalkonium chloride [BC, reference compound]	200 µg/mL	800 µg/mL	800 µg/mL	<1.563 µg/mL	400 µg/mL	100 µg/mL	6.25 µg/mL	1,600 μg/mL	400 µg/mL	>200 µg/mL	>200 µg/mL	>200 µg/mL	>200 µg/mL	10 µg/mL	10 µg/mL	10 µg/mL	10 µg/mL	200 µg/mL	200 µg/mL	100 µg/mL	Minimum Inhibitory Concentration E.c ([12]; Serum 100 μg/mL): 200 µg/mL; Minimum Inhibitory Concentration S.a ([13]; GOT 100 μg/mL): <1 µg/mL; Minimum Inhibitory Concentration S.a ([13]; GPT 100 μg/mL): 50 µg/mL; Minimum Inhibitory Concentration S.a ([13]; Pure Water): <1 µg/mL; Minimum Inhibitory Concentration S.a ([13]; Serum 100 μg/mL): <1 µg/mL
Didecyldimethylammonium adipate [DDAA]	100 µg/mL	400 µg/mL	400 µg/mL	<1.563 µg/mL	200 µg/mL	100 µg/mL	<1.563 µg/mL	400 µg/mL	200 µg/mL	200 µg/mL	200 µg/mL	200 µg/mL	200 µg/mL	<1 µg/mL	<1 µg/mL	<1 µg/mL	<1 µg/mL	50 µg/mL	50 µg/mL	50 µg/mL	Minimum Inhibitory Concentration E.c ([12]; Serum 100 μg/mL): 50 µg/mL; Minimum Inhibitory Concentration S.a ([13]; GOT 100 μg/mL): <1 µg/mL; Minimum Inhibitory Concentration S.a ([13]; GPT 100 μg/mL): <1 µg/mL; Minimum Inhibitory Concentration S.a ([13]; Pure Water): <1 µg/mL; Minimum Inhibitory Concentration S.a ([13]; Serum 100 μg/mL): <1 µg/mL
